Source: patent US20250313548A1 (Actio Biosciences, Inc., priority 2023, published 2025)

Target: human, KCNT1 (Homo sapiens (Human), UniProt Q5JUK3)
Experiment: FLIPR Tl/K Flux Assay
Type: cell-based
Details: HEK293 cells stably expressing human KCNT1; Tl+ flux stimulated with EC80 of agonist Loxapine
How it was run: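 Inhibition values come from a Hill-equation fit of % inhibition versus log concentration, using normalized fluorescence (Fmax/Fmin) over a 160 s read. The read followed stimulation with Tl+ plus EC80 agonist loxapine after 30 min compound pre-incubation at 25 °C. Cells were KCNT1-expressing HEK293, dye-loaded 1 h in pH 7.4 HEPES/HBSS with 5 mM probenecid.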

human, KCNT1, sequence (Q5JUK3 whole entry): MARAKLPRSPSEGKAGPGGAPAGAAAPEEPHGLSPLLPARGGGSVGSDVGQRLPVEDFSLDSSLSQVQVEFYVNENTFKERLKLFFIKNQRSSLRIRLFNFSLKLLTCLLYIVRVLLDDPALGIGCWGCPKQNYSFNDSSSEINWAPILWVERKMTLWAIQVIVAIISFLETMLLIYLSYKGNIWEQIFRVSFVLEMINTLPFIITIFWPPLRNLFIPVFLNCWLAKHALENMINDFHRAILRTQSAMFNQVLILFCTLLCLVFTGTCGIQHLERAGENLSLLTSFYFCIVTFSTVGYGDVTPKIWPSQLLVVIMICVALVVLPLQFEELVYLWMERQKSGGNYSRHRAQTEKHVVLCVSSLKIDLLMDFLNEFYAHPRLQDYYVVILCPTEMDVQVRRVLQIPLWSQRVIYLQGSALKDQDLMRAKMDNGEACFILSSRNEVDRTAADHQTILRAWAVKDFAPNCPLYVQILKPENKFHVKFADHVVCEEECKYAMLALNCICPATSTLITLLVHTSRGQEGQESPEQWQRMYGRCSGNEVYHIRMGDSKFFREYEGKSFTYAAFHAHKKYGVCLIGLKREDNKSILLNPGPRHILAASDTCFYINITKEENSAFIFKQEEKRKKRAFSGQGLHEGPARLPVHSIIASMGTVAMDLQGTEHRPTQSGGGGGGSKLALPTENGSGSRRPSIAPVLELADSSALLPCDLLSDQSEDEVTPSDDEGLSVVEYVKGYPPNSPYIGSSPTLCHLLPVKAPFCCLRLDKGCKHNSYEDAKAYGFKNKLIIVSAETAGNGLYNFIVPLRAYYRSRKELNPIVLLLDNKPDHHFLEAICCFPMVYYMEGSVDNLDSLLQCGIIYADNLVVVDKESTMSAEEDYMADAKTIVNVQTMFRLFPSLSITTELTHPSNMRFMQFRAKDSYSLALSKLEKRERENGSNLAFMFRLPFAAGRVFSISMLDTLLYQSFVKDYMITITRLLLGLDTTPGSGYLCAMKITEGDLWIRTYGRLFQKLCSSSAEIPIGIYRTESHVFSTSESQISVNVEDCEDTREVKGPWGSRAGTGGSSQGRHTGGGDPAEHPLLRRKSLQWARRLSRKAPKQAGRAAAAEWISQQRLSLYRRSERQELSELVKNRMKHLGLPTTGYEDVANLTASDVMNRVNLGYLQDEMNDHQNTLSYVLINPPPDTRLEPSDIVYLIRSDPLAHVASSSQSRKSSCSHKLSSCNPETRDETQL

Compound | IC50 [nM]
O=C(N[C@H]1CCn2nc(-c3ccnc(C(F)(F)F)c3)cc21)C12CC(F)(C1)C2 [Compound I-489a, (S)-3-Fluoro-N-(2-(2-(trifluoromethyl)pyridin-4-yl)-5,6-dihydro-4H-pyrrolo[1,2-b]pyrazol-4-yl)bicyclo[1.1.1]pentane-1-carboxamide] | < 250
O=C(N[C@H]1CCn2nc(-c3ccnc(C(F)(F)F)c3)cc21)C12CC(Cl)(C1)C2 [Compound I-490a, (S)-3-Chloro-N-(2-(2-(trifluoromethyl)pyridin-4-yl)-5,6-dihydro-4H-pyrrolo[1,2-b]pyrazol-4-yl)bicyclo[1.1.1]pentane-1-carboxamide] | < 250
N#CC12CC(C(=O)N[C@H]3CCn4nc(-c5ccnc(C(F)(F)F)c5)cc43)(C1)C2 [Compound I-491a, (S)-3-Cyano-N-(2-(2-(trifluoromethyl)pyridin-4-yl)-5,6-dihydro-4H-pyrrolo[1,2-b]pyrazol-4-yl)bicyclo[1.1.1]pentane-1-carboxamide] | 500 to 1000
Cc1cnc(C2CC2)cc1-c1cc2n(n1)CC[C@@H]2NC(=O)c1nc(C(F)(F)F)nn1C [Compound I-492a, (S)-N-(2-(2-Cyclopropyl-5-methylpyridin-4-yl)-5,6-dihydro-4H-pyrrolo[1,2-b]pyrazol-4-yl)-1-methyl-3-(trifluoromethyl)-1H-1,2,4-triazole-5-carboxamide] | < 250
O=C(N[C@H]1CCn2nc(-c3cc(C(F)(F)F)ncc3F)cc21)C12CC(C(F)(F)F)(C1)C2 [Compound I-493a, (S)-N-(2-(5-Fluoro-2-(trifluoromethyl)pyridin-4-yl)-5,6-dihydro-4H-pyrrolo[1,2-b]pyrazol-4-yl)-3-(trifluoromethyl)bicyclo[1.1.1]pentane-1-carboxamide] | < 250
O=C(N[C@H]1CCn2nc(-c3ccnc(C4CC4)c3)cc21)C12CC(C(F)(F)F)(C1)C2 [Compound I-494a, (S)-N-(2-(2-Cyclopropylpyridin-4-yl)-5,6-dihydro-4H-pyrrolo[1,2-b]pyrazol-4-yl)-3-(trifluoromethyl)bicyclo[1.1.1]pentane-1-carboxamide] | < 250
Cn1nc(C(F)(F)F)nc1C(=O)N[C@H]1CCCn2nc(-c3cc(C4CC4)ncc3F)cc21 [Compound I-495a, (S)-N-(2-(2-Cyclopropyl-5-fluoropyridin-4-yl)-4,5,6,7-tetrahydropyrazolo[1,5-a]pyridin-4-yl)-1-methyl-3-(trifluoromethyl)-1H-1,2,4-triazole-5-carboxamide] | < 250
O=C(N[C@H]1CCCn2nc(-c3ccnc(C4CC4)c3)cc21)c1ccnc(C(F)(F)F)c1 [Compound I-496a, (S)-N-(2-(2-Cyclopropylpyridin-4-yl)-4,5,6,7-tetrahydropyrazolo[1,5-a]pyridin-4-yl)-2-(trifluoromethyl)isonicotinamide] | < 250
O=C(N[C@H]1CCCn2nc(-c3cc(C4CC4)ncc3F)cc21)c1ccnc(OC(F)(F)F)c1 [Compound I-498a, (S)-N-(2-(2-Cyclopropyl-5-fluoropyridin-4-yl)-4,5,6,7-tetrahydropyrazolo[1,5-a]pyridin-4-yl)-2-(trifluoromethoxy)isonicotinamide] | < 250
Cn1nc(C(F)(F)F)nc1C(=O)N[C@H]1CCCn2nc(-c3ccnc(C4CC4)c3)cc21 [Compound I-499a, (S)-N-(2-(2-Cyclopropylpyridin-4-yl)-4,5,6,7-tetrahydropyrazolo[1,5-a]pyridin-4-yl)-1-methyl-3-(trifluoromethyl)-1H-1,2,4-triazole-5-carboxamide] | < 250
COc1cc(-c2nc3c(o2)[C@H](NC(=O)c2cncc(C(F)(F)F)n2)CCC3)c(Cl)cn1 [Compound I-513b] | > 1000
COc1cc(-c2cc3n(n2)CCCC[C@H]3NC(=O)c2cc(F)cc(C#N)c2)c(F)cn1 [Compound I-516b] | 500 to 1000
O=C(N[C@H]1CCn2nc(-c3cc(C(F)(F)F)ncc3F)cc21)C1CC2(CC2)C1 [Compound I-522a, (S)—N-(2-(5-Fluoro-2-(trifluoromethyl)pyridin-4-yl)-5,6-dihydro-4H-pyrrolo[1,2-b]pyrazol-4-yl)spiro[2.3]hexane-5-carboxamide] | < 250
CC1(C)CC(C(=O)N[C@H]2CCn3nc(-c4cc(C(F)(F)F)ncc4F)cc32)C1 [Compound I-523a, (S)-N-(2-(5-Fluoro-2-(trifluoromethyl)pyridin-4-yl)-5,6-dihydro-4H-pyrrolo[1,2-b]pyrazol-4-yl)-3,3-dimethylcyclobutane-1-carboxamide] | < 250

Continued, values first:

IC50 [nM] | Compound
< 250 | O=C(N[C@H]1CCCn2nc(-c3ccnc(C(F)(F)F)c3)cc21)c1cn(C(F)(F)F)nc1C(F)F [Compound I-497a, (S)-3-(Difluoromethyl)-1-(trifluoromethyl)-N-(2-(2-(trifluoromethyl)pyridin-4-yl)-4,5,6,7-tetrahydropyrazolo[1,5-a]pyridin-4-yl)-1H-pyrazole-4-carboxamide]
< 250 | CC(F)(F)c1cc(-c2cc3n(n2)CCC[C@@H]3NC(=O)c2ccnc(C(F)(F)F)c2)ccn1 [Compound I-500a, (S)-N-(2-(2-(1,1-Difluoroethyl)pyridin-4-yl)-4,5,6,7-tetrahydropyrazolo[1,5-a]pyridin-4-yl)-2-(trifluoromethyl)isonicotinamide]
< 250 | O=C(N[C@H]1CCCn2nc(-c3ccnc(C(F)(F)F)c3)cc21)C12CC(C(F)(F)F)(C1)C2 [Compound I-501a, (S)-3-(Trifluoromethyl)-N-(2-(2-(trifluoromethyl)pyridin-4-yl)-4,5,6,7-tetrahydropyrazolo[1,5-a]pyridin-4-yl)bicyclo[1.1.1]pentane-1-carboxamide]
> 1000 | O=C(N[C@@H]1CCCn2nc(-c3cc(C(F)(F)F)ncc3F)nc21)c1cncc(C(F)(F)F)n1 [Compound I-502b]
> 1000 | COc1cc(-c2nc3c(o2)CCC[C@H]3NC(=O)c2cncc(C(F)(F)F)n2)c(F)cn1 [Compound I-503b]
> 1000 | Cn1nc(C(F)(F)F)nc1C(=O)N[C@@H]1CCCc2oc(-c3ccnc(C4CC4)c3)nc21 [Compound I-504b]
< 250 | O=C(N[C@H]1CCCc2oc(-c3ccnc(C4CC4)c3)nc21)c1cn(C(F)(F)F)nc1C(F)F [Compound I-505a, (S)—N-(2-(2-Cyclopropylpyridin-4-yl)-4,5,6,7-tetrahydrobenzo[d]oxazol-4-yl)-3-(difluoromethyl)-1-(trifluoromethyl)-1H-pyrazole-4-carboxamide]
< 250 | O=C(N[C@H]1CCCc2oc(-c3ccnc(C(F)(F)F)c3)nc21)c1cn(C(F)(F)F)nc1C(F)F [Compound I-506a, (S)-3-(Difluoromethyl)-1-(trifluoromethyl)-N-(2-(2-(trifluoromethyl)pyridin-4-yl)-4,5,6,7-tetrahydrobenzo[d]oxazol-4-yl)-1H-pyrazole-4-carboxamide]
< 250 | O=C(N[C@H]1CCCc2oc(-c3ccnc(C(F)(F)F)c3)nc21)C12CC(C(F)(F)F)(C1)C2 [Compound I-507a, (S)-3-(Trifluoromethyl)-N-(2-(2-(trifluoromethyl)pyridin-4-yl)-4,5,6,7-tetrahydrobenzo[d]oxazol-4-yl)bicyclo[1.1.1]pentane-1-carboxamide]
< 250 | CC(F)(F)c1cc(-c2nc3c(o2)CCC[C@@H]3NC(=O)c2cccc(F)c2)ccn1 [Compound I-508a, (S)—N-(2-(2-(1,1-difluoroethyl)pyridin-4-yl)-4,5,6,7-tetrahydrobenzo[d]oxazol-4-yl)-3-fluorobenzamide]
> 1000 | CC(F)(F)c1cc(-c2nc3c(o2)CCC[C@H]3NC(=O)c2cccc(F)c2)ccn1 [Compound I-508b, (R)—N-(2-(2-(1,1-difluoroethyl)pyridin-4-yl)-4,5,6,7-tetrahydrobenzo[d]oxazol-4-yl)-3-fluorobenzamide]
> 1000 | O=C(N[C@@H]1CCCc2nc(-c3ccnc(C4CC4)c3)oc21)c1cncc(C(F)(F)F)n1 [Compound I-509b]
> 1000 | O=C(N[C@@H]1CCCc2nc(-c3ccnc(C(F)(F)F)c3)oc21)c1cncc(C(F)(F)F)n1 [Compound I-510b]
> 1000 | O=C(N[C@@H]1CCCc2nc(-c3cc(C4CC4)ncc3F)oc21)c1cncc(C(F)(F)F)n1 [Compound I-511b]
> 1000 | COc1cc(-c2nc3c(o2)[C@H](NC(=O)c2cncc(C(F)(F)F)n2)CCC3)ccn1 [Compound I-512b]
< 250 | Cn1nc(C(F)(F)F)cc1C(=O)N[C@H]1CCCc2nc(-c3cc(C(F)(F)F)ncc3F)oc21 [Compound I-514a, (S)—N-(2-(5-Fluoro-2-(trifluoromethyl)pyridin-4-yl)-4,5,6,7-tetrahydrobenzo[d]oxazol-7-yl)-1-methyl-3-(trifluoromethyl)-1H-pyrazole-5-carboxamide]
< 250 | O=C(N[C@H]1CCCc2nc(-c3ccnc(C(F)(F)F)c3)oc21)C12CC(C(F)(F)F)(C1)C2 [Compound I-515a]
500 to 1000 | COc1cc(C(=O)N[C@@H]2CCCCn3nc(-c4cc(C(F)(F)F)ncc4F)cc32)ccn1 [Compound I-517b]
< 250 | O=C(N[C@H]1CCCc2oc(-c3ccnc(C4CC4)c3)nc21)c1cn(C(F)(F)F)nc1C(F)(F)F [Compound I-519a, (S)—N-(2-(2-cyclopropylpyridin-4-yl)-4,5,6,7-tetrahydrobenzo[d]oxazol-4-yl)-1,3-bis(trifluoromethyl)-1H-pyrazole-4-carboxamide]
< 250 | O=C(N[C@H]1CCCc2oc(-c3ccnc(C(F)(F)F)c3)nc21)c1cn(C(F)(F)F)nc1C(F)(F)F [Compound I-520a, (S)-1,3-bis(trifluoromethyl)-N-(2-(2-(trifluoromethyl)pyridin-4-yl)-4,5,6,7-tetrahydrobenzo[d]oxazol-4-yl)-1H-pyrazole-4-carboxamide]
< 250 | O=C(N[C@H]1CCn2nc(-c3ccnc(C(F)(F)F)c3)cc21)c1cn(C(F)(F)F)nc1C(F)(F)F [Compound I-521a, (S)-1,3-bis(trifluoromethyl)-N-(2-(2-(trifluoromethyl)pyridin-4-yl)-5,6-dihydro-4H-pyrrolo[1,2-b]pyrazol-4-yl)-1H-pyrazole-4-carboxamide]
